Measured values from patent US7390783B2, “Charged phospholipid compositions and methods for their use” (Ottawa Heart Institute Research Corporation, priority 2000, dated 2008).

Assays:
[1] = system: [^3H]-FC in plasma; test: Clearance of [^3H]-FC from the blood of a rabbit; assay type: in vivo
Experimental: 1-palmitoyl-2-oleoyl-phosphatidylcholine (PC) and 1-palmitoyl-2-oleoyl phosphatidylinositol (PI) vesicles are prepared by drying to completion 40 μmol of each lipid into a 12×75 mm culture tube under N2. The lipids are solubilized in 3 mL of sterile saline comprising 150 mM sodium chloride (pH 7.2) by sonication for 1 minute at constant duty cycle. The vesicles are incubated at 37° C. for 10 minutes and then sonicated at a high output for 4 minutes in 10° C. water bath under N2. In order to determine the rate of clearance of cholesterol from the test animals (rabbits), a radioactive tracer is added to the vesicle preparations prior to injection into the rabbit. 200 μL of 1 μCi/μmL [^3H]-FC is dried into a 12×75 mm culture tube with 40 μmol of PI or POPC. 3 ml of PBS is added to the dried lipids and the mixture is sonicated as described above. This tracer/vesicle preparation is injected and then 5 min later, the PI or PC vesicles were injected and blood is sampled as described below.
Male New Zealand white rabbits (3.5-4.0 kg) are fasted for 12 hours prior to injection and remain fasted until after data for the final time point is taken. Rabbits have free access to water during this time. A catheter is inserted into the marginal ear vein and blood samples are collected into tubes containing 7.5% (K3) EDTA solution at the desired time points. A pre-injection blood sample is taken and the vesicle solution of either PI (n=4), or PC (n=2) or saline (n=1) is injected into the marginal ear vein. A sample of blood is removed at 10, 30 min, 1, 3, 6 and 24 h after the injection. All blood samples are placed on ice and then centrifuged at 3000 rpm for 15 min at 4° C. to separate the plasma. In order to ensure that lecithin:cholesterol acyl transferase (LCAT) is inhibited in the stored plasma, iodoacetamide (150 mM) is added to plasma samples as taught by Guerin et al. (1994).
Referring now to FIG. 5, there is shown the clearance of [^3H]-FC at various times after rabbits are injected with [^3H]-FC and either PI or PC vesicles. […] In comparison, rabbits injected with PC contain approximately 90% of the injected radioactivity after 1 h.

[2] = molecular target: T1, lecithin:cholesterol acyltransferase (LCAT) (Oryctolagus cuniculus, UniProt P53761); test: Plasma cholesterol esterification by LCAT after injection of PC or PI; assay type: in vivo, rabbit
T1 construct: endogenous LCAT activity is reduced to about 18% that of normal; from tissue; host or cells: plasma of PI- or PC-injected rabbits
T1 sequence (P53761 25-440): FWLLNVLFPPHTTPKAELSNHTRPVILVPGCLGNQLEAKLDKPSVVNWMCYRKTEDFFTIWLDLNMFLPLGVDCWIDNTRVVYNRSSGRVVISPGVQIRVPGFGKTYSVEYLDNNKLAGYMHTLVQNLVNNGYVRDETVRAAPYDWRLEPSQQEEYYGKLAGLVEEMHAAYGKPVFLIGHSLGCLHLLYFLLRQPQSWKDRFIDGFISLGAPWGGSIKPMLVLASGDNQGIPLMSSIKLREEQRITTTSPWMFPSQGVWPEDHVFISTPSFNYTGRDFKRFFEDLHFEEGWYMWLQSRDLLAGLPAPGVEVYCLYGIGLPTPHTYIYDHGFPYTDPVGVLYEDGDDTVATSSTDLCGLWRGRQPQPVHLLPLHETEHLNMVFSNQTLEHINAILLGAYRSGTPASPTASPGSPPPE
Experimental: Male New Zealand white rabbits (3.5-4.0 kg) are fasted for 12 hours prior to injection and remain fasted until after data for the final time point is taken. Rabbits have free access to water during this time. A catheter is inserted into the marginal ear vein and blood samples are collected into tubes containing 7.5% (K3) EDTA solution at the desired time points. A pre-injection blood sample is taken and the vesicle solution of either PI (n=4), or PC (n=2) or saline (n=1) is injected into the marginal ear vein. A sample of blood is removed at 10, 30 min, 1, 3, 6 and 24 h after the injection. All blood samples are placed on ice and then centrifuged at 3000 rpm for 15 min at 4° C. to separate the plasma. In order to ensure that lecithin:cholesterol acyl transferase (LCAT) is inhibited in the stored plasma, iodoacetamide (150 mM) is added to plasma samples as taught by Guerin et al. (1994). The effect of PI on LCAT activity is examined using plasma samples that are not treated with iodoacetamide. 400 μL aliquots of plasma for each time point are incubated for 30 min with 10 μCi of [^3H]-FC on filter paper discs (Dobiasova et al., 1991) at 37° C. and the reaction is terminated with the addition of 2 mL ethanol. Reaction products are extracted in hexane and the amount of [^3H] associated with CE and FC is determined by thin layer chromatography. […] However, endogenous LCAT activity is reduced to about 18% that of normal (PC injected control) after about 10 min post injection of PI. Also, PI injection reduces the fractional rate of cholesterol esterification from about 45% to about 8%, of initial values, per hour. […] To investigate the effect of PI on the production and transport of CE in the plasma, the amount of radioactive CE was measured at each time point (data not shown). […] Rather it appears that PI may modify intravascular cholesterol levels by mobilizing a cellular cholesterol pool.

endogenous LCAT activity, of normal (PC injected control) ([2]; about 10 min post injection): about 18%
LCAT activity returned to, of normal ([2]; after a period of time following vesicle injection): about 75%
effect on LCAT activity / cholesteryl esterification ([2]; after injection of vesicles): almost completely inhibits
less [3H]-CE in plasma than in the control ([2]; initial time points, vs PC injected rabbit): 85%
fractional rate of cholesterol esterification ([2]; of initial values, per hour, reduced from about 45%): about 8%
SMILES: CCCCCCCC/C=C\CCCCCCCC(=O)O[C@H](COC(=O)CCCCCCCCCCCCCCC)COP(=O)(O)O[C@@H]1[C@H](O)[C@H](O)[C@@H](O)[C@H](O)[C@H]1O [PI, 1-palmitoyl-2-oleoyl phosphatidylinositol]
[^3H]-FC in plasma, of the initial dose ([1]; after about 1 h): about 15%
half-life of [^3H]-FC shorter than for PC injected rabbits ([1]; rabbit, in vivo): about 30 fold
